# Literature values as cited in US20220031840A1, “Method of Treatment” (HaemaLogix Pty Ltd, priority 2018, published 2022).
# System: CXCL10
# Settings: elotuzumab phase I study; cited from earlier work
substance,measurement,value
elotuzumab: antibody named as additional anti-cancer agent; phase I study cited (Zonder et al. 2012),Drug-induced change in CXCL10 levels,drug-induced increases
